Test results published in US9174964B2, “AMPK-activating piperidinyloxy-substituted 2,3-dihydro-1H-indene-1-amine compounds and pharmaceutical compositions including the same” (Rigel Pharmaceuticals, Inc., priority 2007, dated 2015).

Molecular target: AMPK
Assay: AMPK activation, enzyme-linked immunosorbent assay
Type: biochemical
Conditions: Table 2, AMPK activation, ELISA
Protocol: Compounds 1-50 of Table 1 were assayed for their ability to activate AMPK using an enzyme-linked immunosorbent assay.
Compounds 51-60 of Table 1 were assayed for their ability to activate AMPK using an enzyme-linked immunosorbent assay.
Compounds 61-131 of Table 1 were assayed for their ability to activate AMPK using an enzyme-linked immunosorbent assay.
Compounds 137-141 and 143-155 of Table 1 were assayed for their ability to activate AMPK using an enzyme-linked immunosorbent assay.
Compounds 156-160 of Table 1 were assayed for their ability to activate AMPK using an enzyme-linked immunosorbent assay.

| EC50 [nM] | SMILES |
| --- | --- |
| < 100 | N#Cc1ccc(CN2CCC(NC(=O)c3ccc(OC4CCN(c5ccc(C#N)cc5)CC4)cn3)CC2)cc1 [Compound 2, N-(1-(4-cyanobenzyl)piperidin-4-yl)-5-(1-(4-cyanophenyl)piperidin-4-yloxy)picolinamide] |
| < 100 | O=C(NC1CCN(Cc2cccnc2)CC1)c1ccc(OC2CCN(c3ccc(C(F)(F)F)cc3)CC2)cn1 [Compound 5, N-(1-(pyridin-3-ylmethyl)piperidin-4-yl)-5-(1-(4-(trifluoromethyl)phenyl)piperidin-4-yloxy)picolinamide] |
| 100 to 500 | N#Cc1ccc(N2CCC(Oc3ccc(C(=O)NC4CCN(Cc5cccnc5)CC4)nc3)CC2)cc1 [Compound 6, N-(1-(pyridin-3-ylmethyl)piperidin-4-yl)-5-(1-(4-cyanophenyl)piperidin-4-yloxy)picolinamide] |
| < 100 | COC(=O)c1ccc(CN2CCC(NC(=O)c3ccc(OC4CCN(c5ccc(C#N)cc5)CC4)cn3)CC2)cc1 [Compound 7, methyl 4-((4-(5-(1-(4-cyanophenyl)piperidin-4-yloxy)picolinamido)piperidin-1-yl)methyl)benzoate] |
| 100 to 500 | CC(C)(C)OC(=O)N1CCC(NC(=O)c2ccc(OC3CCN(c4ccc(C(F)(F)F)cc4)CC3)nc2)CC1 [Compound 9, tert-butyl 4-(6-(1-(4-(trifluoromethyl)phenyl)piperidin-4-yloxy)nicotinamido) piperidine-1-carboxylate] |
| < 100 | O=C(NC1CCN(Cc2ccncc2)CC1)c1ccc(OC2CCN(c3ccc(C(F)(F)F)cc3)CC2)nc1 [Compound 10, N-(1-(pyridin-4-ylmethyl)piperidin-4-yl)-6-(1-(4-(trifluoromethyl)phenyl)piperidin-4-yloxy)nicotinamide] |
| 500 to 1000 | CC(C)(C)OC(=O)N1CCC(NC(=O)c2cc(OC3CCN(c4ccc(C(F)(F)F)cc4)CC3)ccn2)CC1 [Compound 12, tert-butyl 4-(4-(1-(4-(trifluoromethyl)phenyl)piperidin-4-yloxy)picolinamido) piperidine-1-carboxylate] |
| < 100 | O=C(NC1CCN(Cc2ccncc2)CC1)c1cncc(OC2CCN(c3ccc(C(F)(F)F)cc3)CC2)c1 [Compound 14, N-(1-(pyridin-4-ylmethyl)piperidin-4-yl)-5-(1-(4-(trifluoromethyl)phenyl)piperidin-4-yloxy)nicotinamide] |
| < 100 | O=C(NC1CCN(Cc2ccc(F)cc2)CC1)c1cncc(OC2CCN(c3ccc(C(F)(F)F)cc3)CC2)c1 [Compound 16, N-(1-(4-fluorobenzyl)piperidin-4-yl)-5-(1-(4-(trifluoromethyl)phenyl)piperidin-4-yloxy)nicotinamide] |
| < 100 | O=C(NC1CCN(Cc2cccnc2)CC1)c1cncc(OC2CCN(c3ccc(C(F)(F)F)cc3)CC2)c1 [Compound 18, N-(1-(pyridin-3-ylmethyl)piperidin-4-yl)-5-(1-(4-(trifluoromethyl)phenyl)piperidin-4-yloxy)nicotinamide] |
| 1000 to 5000 | O=C(NC1CCNCC1)c1ccnc(OC2CCN(c3ccc(C(F)(F)F)cc3)CC2)c1 [Compound 19, N-(piperidin-4-yl)-2-(1-(4-(trifluoromethyl)phenyl)piperidin-4-yloxy)isonicotinamide] |
| 100 to 500 | N#Cc1ccc(CN2CCC(NC(=O)c3ccnc(OC4CCN(c5ccc(C(F)(F)F)cc5)CC4)c3)CC2)cc1 [Compound 21, N-(1-(4-cyanobenzyl)piperidin-4-yl)-2-(1-(4-(trifluoromethyl)phenyl)piperidin-4-yloxy)isonicotinamide] |
| 100 to 500 | CC(C)(C)OC(=O)N1CC[C@H](NC(=O)c2ccc(OC3CCN(c4ccc(C(F)(F)F)cc4)CC3)cn2)C1 [Compound 26, (S)-tert-butyl 3-(5-(1-(4-(trifluoromethyl)phenyl)piperidin-4-yloxy)picolinamido) pyrrolidine-1-carboxylate] |
| > 10000 | O=C(N[C@H]1CCNC1)c1ccc(OC2CCN(c3ccc(C(F)(F)F)cc3)CC2)cn1 [Compound 27, (S)-N-(pyrrolidin-3-yl)-5-(1-(4-(trifluoromethyl)phenyl)piperidin-4-yloxy)picolinamide] |
| < 100 | N#Cc1ccc(CN2CCC(NC(=O)c3cc(OC4CCN(c5ccc(C(F)(F)F)cc5)CC4)ccn3)CC2)cc1 [Compound 28, N-(1-(4-cyanobenzyl)piperidin-4-yl)-4-(1-(4-(trifluoromethyl)phenyl)piperidin-4-yloxy)picolinamide] |
| < 100 | O=C(N[C@H]1CCN(Cc2ccncc2)C1)c1ccc(OC2CCN(c3ccc(C(F)(F)F)cc3)CC2)cn1 [Compound 30, (S)-N-(1-(pyridin-4-ylmethyl)pyrrolidin-3-yl)-5-(1-(4-(trifluoromethyl)phenyl)piperidin-4-yloxy)picolinamide] |
| < 100 | N#Cc1ccc(CN2CC[C@H](NC(=O)c3ccc(OC4CCN(c5ccc(C(F)(F)F)cc5)CC4)cn3)C2)cc1 [Compound 31, (S)-N-(1-(4-cyanobenzyl)pyrrolidin-3-yl)-5-(1-(4-(trifluoromethyl)phenyl)piperidin-4-yloxy)picolinamide] |
| 100 to 500 | O=C(N[C@H]1CCN(Cc2ccc(F)cc2)C1)c1ccc(OC2CCN(c3ccc(C(F)(F)F)cc3)CC2)cn1 [Compound 32, (S)-N-(1-(4-fluorobenzyl)pyrrolidin-3-yl)-5-(1-(4-(trifluoromethyl)phenyl)piperidin-4-yloxy)picolinamide] |

Continued, molecule first:

| SMILES | EC50 [nM] |
| --- | --- |
| N#Cc1ccc(N2CCC(Oc3ccc(C(=O)NC4CCN(Cc5ccncc5)CC4)nc3)CC2)cc1 [Compound 1, 5-(1-(4-cyanophenyl)piperidin-4-yloxy)-N-(1-(pyridin-4-ylmethyl)piperidin-4-yl)picolinamide] | 100 to 500 |
| O=C(NC1CCN(Cc2ccncc2)CC1)c1ccc(OC2CCN(c3ccc(C(F)(F)F)cc3)CC2)cn1 [Compound 3, N-(1-(pyridin-4-ylmethyl)piperidin-4-yl)-5-(1-(4-(trifluoromethyl)phenyl)piperidin-4-yloxy)picolinamide] | < 100 |
| N#Cc1ccc(CN2CCC(NC(=O)c3ccc(OC4CCN(c5ccc(C(F)(F)F)cc5)CC4)cn3)CC2)cc1 [Compound 4, N-(1-(4-cyanobenzyl)piperidin-4-yl)-5-(1-(4-(trifluoromethyl)phenyl)piperidin-4-yloxy)picolinamide] | < 100 |
| COC(=O)c1ccc(CN2CCC(NC(=O)c3ccc(OC4CCN(c5ccc(C(F)(F)F)cc5)CC4)cn3)CC2)cc1 [Compound 8, methyl 4-((4-(5-(1-(4-(trifluoromethyl)phenyl)piperidin-4-yloxy)picolinamido)piperidin-1-yl)methyl)benzoate] | < 100 |
| O=C(NC1CCN(Cc2ccc(F)cc2)CC1)c1ccc(OC2CCN(c3ccc(C(F)(F)F)cc3)CC2)nc1 [Compound 11, N-(1-(4-fluorobenzyl)piperidin-4-yl)-6-(1-(4-(trifluoromethyl)phenyl)piperidin-4-yloxy)nicotinamide] | < 100 |
| O=C(NC1CCN(Cc2ccncc2)CC1)c1cc(OC2CCN(c3ccc(C(F)(F)F)cc3)CC2)ccn1 [Compound 13, N-(1-(pyridin-4-ylmethyl)piperidin-4-yl)-4-(1-(4-(trifluoromethyl)phenyl)piperidin-4-yloxy)picolinamide] | 100 to 500 |
| CC(C)(C)OC(=O)N1CCC(NC(=O)c2ccnc(OC3CCN(c4ccc(C(F)(F)F)cc4)CC3)c2)CC1 [Compound 15, tert-butyl 4-(2-(1-(4-(trifluoromethyl)phenyl)piperidin-4-yloxy)isonicotinamido) piperidine-1-carboxylate] | 1000 to 5000 |
| N#Cc1ccc(CN2CCC(NC(=O)c3cncc(OC4CCN(c5ccc(C(F)(F)F)cc5)CC4)c3)CC2)cc1 [Compound 17, N-(1-(4-cyanobenzyl)piperidin-4-yl)-5-(1-(4-(trifluoromethyl)phenyl)piperidin-4-yloxy)nicotinamide] | < 100 |
| O=C(NC1CCN(Cc2ccncc2)CC1)c1ccnc(OC2CCN(c3ccc(C(F)(F)F)cc3)CC2)c1 [Compound 20, N-(1-(pyridin-4-ylmethyl)piperidin-4-yl)-2-(1-(4-(trifluoromethyl)phenyl)piperidin-4-yloxy)isonicotinamide] | 500 to 1000 |
| O=C(NC1CCN(Cc2ccc(F)cc2)CC1)c1ccnc(OC2CCN(c3ccc(C(F)(F)F)cc3)CC2)c1 [Compound 22, N-(1-(4-fluorobenzyl)piperidin-4-yl)-2-(1-(4-(trifluoromethyl)phenyl)piperidin-4-yloxy)isonicotinamide] | 1000 to 5000 |
| CC(C)(C)OC(=O)N1CC[C@@H](NC(=O)c2ccc(OC3CCN(c4ccc(C(F)(F)F)cc4)CC3)cn2)C1 [Compound 23, (R)-tert-butyl 3-(5-(1-(4-(trifluoromethyl)phenyl)piperidin-4-yloxy)picolinamido) pyrrolidine-1-carboxylate] | 100 to 500 |
| O=C(N[C@@H]1CCNC1)c1ccc(OC2CCN(c3ccc(C(F)(F)F)cc3)CC2)cn1 [Compound 24, (R)-N-(pyrrolidin-3-yl)-5-(1-(4-(trifluoromethyl)phenyl)piperidin-4-yloxy)picolinamide] | 5000 to 10000 |
| O=C(N[C@@H]1CCN(Cc2ccncc2)C1)c1ccc(OC2CCN(c3ccc(C(F)(F)F)cc3)CC2)cn1 [Compound 25, (R)-N-(1-(pyridin-4-ylmethyl)pyrrolidin-3-yl)-5-(1-(4-(trifluoromethyl)phenyl)piperidin-4-yloxy)picolinamide] | 100 to 500 |
| O=C(NC1CCN(Cc2ccc(F)cc2)CC1)c1cc(OC2CCN(c3ccc(C(F)(F)F)cc3)CC2)ccn1 [Compound 29, N-(1-(4-fluorobenzyl)piperidin-4-yl)-4-(1-(4-(trifluoromethyl)phenyl)piperidin-4-yloxy)picolinamide] | 100 to 500 |
| N#Cc1ccc(CN2CC[C@@H](NC(=O)c3ccc(OC4CCN(c5ccc(C(F)(F)F)cc5)CC4)cn3)C2)cc1 [Compound 33, (R)-N-(1-(4-cyanobenzyl)pyrrolidin-3-yl)-5-(1-(4-(trifluoromethyl)phenyl)piperidin-4-yloxy)picolinamide] | 500 to 1000 |
